The values below come from ChEMBL document CHEMBL1743341, “Cytochrome p450 enzymes mechanism based inhibitors: common sub-structures and reactivity” (Curr Drug Metab, 2005).

Data set [1] deals with Cytochrome P450 4A4 (Oryctolagus cuniculus, UniProt P10611). The data set can be described thus: Mechanism based inhibition of rabbit cytochrome P450 CYP4A4. The data set is classed as ADME.
For data set [2], the target named is T1, Cytochrome P450 3A6 (Oryctolagus cuniculus, UniProt P11707). The data set can be described thus: Mechanism based inhibition of rabbit cytochrome P450 3A6, partition ratio. The data set is classed as ADME.
T1 sequence (P11707 whole entry): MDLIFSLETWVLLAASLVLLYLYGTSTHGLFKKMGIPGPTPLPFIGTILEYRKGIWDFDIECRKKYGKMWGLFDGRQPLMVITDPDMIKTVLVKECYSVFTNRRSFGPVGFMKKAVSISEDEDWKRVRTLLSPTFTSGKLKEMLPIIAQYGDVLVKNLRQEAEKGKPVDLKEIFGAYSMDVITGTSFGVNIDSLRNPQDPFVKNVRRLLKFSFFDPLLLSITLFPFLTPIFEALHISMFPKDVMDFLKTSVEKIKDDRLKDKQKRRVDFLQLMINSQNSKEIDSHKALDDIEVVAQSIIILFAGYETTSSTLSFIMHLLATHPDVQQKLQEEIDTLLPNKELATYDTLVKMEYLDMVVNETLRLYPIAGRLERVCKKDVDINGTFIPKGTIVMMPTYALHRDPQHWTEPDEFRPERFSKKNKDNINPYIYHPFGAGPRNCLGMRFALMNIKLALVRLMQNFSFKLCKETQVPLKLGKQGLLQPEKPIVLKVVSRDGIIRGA
The target in data set [3] is T2, Cytochrome P450 3A4 (Homo sapiens, UniProt P08684). The data set can be described thus: Mechanism based inhibition of human cytochrome P450 3A4 measured by testosterone 6-beta hydroxylation. The data set is classed as ADME.
T2 sequence (P08684 whole entry): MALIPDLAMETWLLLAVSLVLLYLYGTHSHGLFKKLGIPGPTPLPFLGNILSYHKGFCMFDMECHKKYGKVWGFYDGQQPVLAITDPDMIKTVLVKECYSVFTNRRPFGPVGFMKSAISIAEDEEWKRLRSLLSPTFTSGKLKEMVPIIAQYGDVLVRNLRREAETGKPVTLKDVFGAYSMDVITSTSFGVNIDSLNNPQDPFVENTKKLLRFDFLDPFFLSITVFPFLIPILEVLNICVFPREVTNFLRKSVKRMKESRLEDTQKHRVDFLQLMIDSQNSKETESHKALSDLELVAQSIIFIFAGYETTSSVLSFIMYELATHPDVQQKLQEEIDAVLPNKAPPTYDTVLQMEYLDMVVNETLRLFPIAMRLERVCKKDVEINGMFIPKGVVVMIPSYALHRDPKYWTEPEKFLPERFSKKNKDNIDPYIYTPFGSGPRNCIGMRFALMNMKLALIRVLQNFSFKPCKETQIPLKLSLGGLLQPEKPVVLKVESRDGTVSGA
Data set [4] deals with T1, Cytochrome P450 3A6. The data set can be described thus: Mechanism based inhibition of rabbit cytochrome P450 3A6 measured by testosterone and progesterone 6-beta hydroxylation. Format: ADME.
Data set [5] has as its target T3, Cytochrome P450 3A5 (Homo sapiens, UniProt P20815). The data set can be described thus: (§1) Mechanism based inhibition of human cytochrome P450 3A5. Format: ADME.
The target in data set [6] is CYP3A5 (Homo sapiens, UniProt P20815). The description is as §1. The data set is classed as ADME. Conditions: human.
Chain of CYP3A5 (P20815 whole entry): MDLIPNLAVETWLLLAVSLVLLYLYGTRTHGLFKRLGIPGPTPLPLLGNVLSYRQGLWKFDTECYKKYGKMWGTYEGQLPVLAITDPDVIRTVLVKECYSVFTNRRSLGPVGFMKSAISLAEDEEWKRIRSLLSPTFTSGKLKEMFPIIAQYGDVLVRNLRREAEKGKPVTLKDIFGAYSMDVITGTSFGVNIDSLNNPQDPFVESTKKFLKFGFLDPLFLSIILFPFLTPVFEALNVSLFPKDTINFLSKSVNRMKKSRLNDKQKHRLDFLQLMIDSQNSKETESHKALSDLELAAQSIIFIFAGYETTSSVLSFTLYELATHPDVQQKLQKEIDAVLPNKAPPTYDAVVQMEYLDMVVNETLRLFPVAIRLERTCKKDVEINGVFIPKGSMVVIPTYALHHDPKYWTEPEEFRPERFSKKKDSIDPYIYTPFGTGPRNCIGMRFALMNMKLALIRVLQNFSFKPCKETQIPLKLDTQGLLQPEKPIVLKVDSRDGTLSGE
Data set [7] addresses Cytochrome P450 2E1 (Homo sapiens, UniProt P05181). The data set can be described thus: (§2) Mechanism based inhibition of human cytochrome P450 2E1 measured in vivo. The data set is classed as ADME, organism-based.
The target of data set [8] is CYP2E1 (Homo sapiens, UniProt P05181). The data set is described as §2. Format: ADME, organism-based. The settings on record: human, in vivo.
Chain of CYP2E1 (P05181 whole entry): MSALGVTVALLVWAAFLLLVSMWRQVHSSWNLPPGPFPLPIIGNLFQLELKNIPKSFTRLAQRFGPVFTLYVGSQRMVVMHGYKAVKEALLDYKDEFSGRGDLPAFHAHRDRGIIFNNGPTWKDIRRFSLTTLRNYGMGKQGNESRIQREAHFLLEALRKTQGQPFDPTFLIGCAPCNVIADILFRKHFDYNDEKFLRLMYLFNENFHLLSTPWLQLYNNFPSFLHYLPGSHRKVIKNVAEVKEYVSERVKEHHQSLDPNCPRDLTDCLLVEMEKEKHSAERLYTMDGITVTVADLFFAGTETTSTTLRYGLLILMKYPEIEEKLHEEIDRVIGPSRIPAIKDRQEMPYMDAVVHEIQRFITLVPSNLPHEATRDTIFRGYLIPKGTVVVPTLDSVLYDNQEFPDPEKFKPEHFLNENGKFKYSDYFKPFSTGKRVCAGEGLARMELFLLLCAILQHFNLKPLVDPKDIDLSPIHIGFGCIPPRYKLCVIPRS
Data set [9] addresses T4, CYP2B6 (Homo sapiens, UniProt P20813).
T4 sequence (P20813 whole entry): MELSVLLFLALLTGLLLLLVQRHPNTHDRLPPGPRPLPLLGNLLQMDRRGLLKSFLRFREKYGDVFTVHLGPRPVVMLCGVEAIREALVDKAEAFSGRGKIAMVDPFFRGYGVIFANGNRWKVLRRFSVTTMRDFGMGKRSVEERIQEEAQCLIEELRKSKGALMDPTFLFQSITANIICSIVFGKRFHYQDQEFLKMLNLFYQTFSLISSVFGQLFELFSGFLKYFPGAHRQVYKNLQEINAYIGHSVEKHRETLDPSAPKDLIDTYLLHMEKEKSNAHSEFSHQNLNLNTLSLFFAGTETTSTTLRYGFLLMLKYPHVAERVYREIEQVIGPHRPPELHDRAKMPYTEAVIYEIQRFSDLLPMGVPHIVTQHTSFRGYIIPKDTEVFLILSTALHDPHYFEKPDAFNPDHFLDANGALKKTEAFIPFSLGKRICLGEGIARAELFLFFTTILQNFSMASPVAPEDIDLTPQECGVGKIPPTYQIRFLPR
The data set can be described thus: (§3) Mechanism based inhibition of human cytochrome P450 2B6. The data set is classed as ADME. The settings on record: human.

Data set [10] deals with T5, Cytochrome P450 2B6 (Homo sapiens, UniProt P20813).
T5 sequence (P20813 whole entry): T4 sequence (P20813 whole entry)
Described as §3. Format: ADME.

The target in data set [11] is T5, Cytochrome P450 2B6. The data set can be described thus: Mechanism based inhibition of human cytochrome P450 2B6, partition ratio. The data set is classed as ADME.
Data set [12] concerns the target T2, Cytochrome P450 3A4. The data set can be described thus: Mechanism based inhibition of human cytochrome P450 3A4 measured by testosterone 6-beta hydroxylation and erythromycin N-demethylation. Format: ADME.
Data set [13] has as its target T6, CYP2B4 (Oryctolagus cuniculus, UniProt P00178).
T6 sequence (P00178 whole entry): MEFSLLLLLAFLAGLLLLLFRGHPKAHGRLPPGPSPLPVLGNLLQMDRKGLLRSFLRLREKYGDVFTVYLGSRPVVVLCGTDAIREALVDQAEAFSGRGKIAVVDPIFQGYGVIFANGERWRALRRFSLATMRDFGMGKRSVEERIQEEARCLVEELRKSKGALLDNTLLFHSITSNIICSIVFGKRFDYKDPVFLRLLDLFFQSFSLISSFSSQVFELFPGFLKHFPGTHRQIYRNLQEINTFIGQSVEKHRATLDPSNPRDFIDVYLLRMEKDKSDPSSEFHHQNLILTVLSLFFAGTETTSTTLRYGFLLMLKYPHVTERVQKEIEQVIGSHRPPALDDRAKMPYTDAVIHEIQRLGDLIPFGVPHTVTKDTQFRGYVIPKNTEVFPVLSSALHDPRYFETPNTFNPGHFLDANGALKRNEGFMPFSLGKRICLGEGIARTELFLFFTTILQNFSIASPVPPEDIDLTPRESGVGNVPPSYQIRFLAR
The data set can be described thus: (§4) Mechanism based inhibition of rabbit cytochrome P450 2B4. The data set is classed as ADME. Conditions: rabbit.

For data set [14], the target named is T7, Cytochrome P450 2B4 (Oryctolagus cuniculus, UniProt P00178).
T7 sequence (P00178 whole entry): T6 sequence (P00178 whole entry)
The data set is described as §4. The data set is classed as ADME.

In data set [15] the target is T8, Cytochrome P450 2B1 (Rattus norvegicus, UniProt P00176).
T8 sequence (P00176 whole entry): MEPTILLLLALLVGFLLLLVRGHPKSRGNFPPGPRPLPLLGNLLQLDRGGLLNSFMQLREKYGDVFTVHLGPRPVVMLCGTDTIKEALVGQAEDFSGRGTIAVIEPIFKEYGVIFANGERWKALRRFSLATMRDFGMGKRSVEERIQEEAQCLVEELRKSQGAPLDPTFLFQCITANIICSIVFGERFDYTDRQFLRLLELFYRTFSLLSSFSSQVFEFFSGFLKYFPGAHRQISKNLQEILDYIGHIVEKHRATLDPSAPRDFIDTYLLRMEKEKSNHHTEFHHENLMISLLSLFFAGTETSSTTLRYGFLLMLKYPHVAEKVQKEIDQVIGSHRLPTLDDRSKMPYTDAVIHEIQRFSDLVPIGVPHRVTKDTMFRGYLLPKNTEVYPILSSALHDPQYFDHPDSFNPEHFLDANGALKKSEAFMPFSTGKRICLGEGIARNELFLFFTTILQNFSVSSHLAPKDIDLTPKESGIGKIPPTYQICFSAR
The data set can be described thus: (§5) Mechanism based inhibition of rat cytochrome P450 2B1. Format: ADME.

The target in data set [16] is T9, CYP2B1 (Rattus norvegicus, UniProt P00176).
T9 sequence (P00176 whole entry): T8 sequence (P00176 whole entry)
The data set is described as §5. Conditions: rat. Format: ADME.

Data set [17] has as its target T3, Cytochrome P450 3A5. The data set can be described thus: Mechanism based inhibition of human cytochrome P450 3A5, partition ratio. Format: ADME.

T3 sequence (P20815 whole entry): as the sequence (P20815 whole entry) above
Chain of Cytochrome P450 2E1 (P05181 whole entry): as the sequence (P05181 whole entry) above
Chain of Cytochrome P450 4A4 (P10611 whole entry): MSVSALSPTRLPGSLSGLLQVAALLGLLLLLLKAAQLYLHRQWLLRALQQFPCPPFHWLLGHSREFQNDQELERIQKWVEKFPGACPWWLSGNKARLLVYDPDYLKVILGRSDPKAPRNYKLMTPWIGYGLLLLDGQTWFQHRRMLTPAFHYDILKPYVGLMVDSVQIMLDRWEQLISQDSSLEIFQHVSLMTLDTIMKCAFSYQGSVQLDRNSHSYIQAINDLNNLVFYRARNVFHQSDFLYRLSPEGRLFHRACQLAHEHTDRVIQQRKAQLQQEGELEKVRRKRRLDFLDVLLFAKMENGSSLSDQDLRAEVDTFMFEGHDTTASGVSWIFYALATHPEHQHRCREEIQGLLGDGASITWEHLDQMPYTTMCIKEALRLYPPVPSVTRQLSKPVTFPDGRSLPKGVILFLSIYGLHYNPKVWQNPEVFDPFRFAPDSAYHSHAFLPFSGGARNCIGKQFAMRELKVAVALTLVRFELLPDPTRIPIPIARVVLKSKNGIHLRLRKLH

In the case of `C#CCCCC(O)CCCCCCCCCCC(=O)O` (stereo not drawn), the mechanism based inhibition entry in [1] is on record as “Cytochrome P450 mechanistic inhibitor: PMID 9168258”.
As to `O=c1cc(-c2ccccc2)oc2c1ccc1ccccc12` [ALPHA-NAPHTHOFLAVONE], in data set [2], the Partition ratio stood at 21. Also, the mechanism based inhibition entry in data set [3] is reported as “Cytochrome P450 mechanistic inhibitor: PMID 11640917”. This compound showed a Ki in data set [4] of 80.1 µM.
Regarding `CC(C)=CCC/C(C)=C/COc1c2ccoc2cc2oc(=O)ccc12` [BERGAMOTTIN], the Ki in data set [5] was 20 µM; in [7], 40 µM; in data set [10], 5.2 µM; in [12], 7.7 µM; in data set [14] it was 2.8 µM; in data set [15], 2.4 µM. Also, the kinact (usually the maximal first-order rate at which the target is inactivated) in data set [6] is 0.00075 s⁻¹; in data set [8], 0.00133 s⁻¹; in data set [9], 0.00145 s⁻¹; in [13], 0.00113 s⁻¹; in data set [16], 0.000817 s⁻¹. The Partition ratio came to 2 in [11] and 20 in data set [17]. The mechanism based inhibition result in data set [3] is recorded as “Cytochrome P450 mechanistic inhibitor: PMID 10859150”.
